Among the test systems are UO-31 renal; MOLT-4 leukemia; TK-10 renal; EKVX NSCLC; COLO 205 colon; A549 NSCLC; HT29 colon; UACC-62 melanoma; HCT-15 colon; SK-MEL-28 melanoma.
Common to all, as to assay: NCI tumour cell line growth inhibition, 48 h

Several values for one entry are separate records, joined by “and”; a condition that tells them apart may be missing. Equal values may be shown once.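 Dose response: 5 concentrations. Exposure: 48 h. Format: 96-well plates. Endpoint: linear interpolation; highest concentration if not reached. GI50 = concentration required for 50% inhibition of growth. TGI: total growth inhibition.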

Turning to `CC(C)(/C=C(\C#N)C(=O)N1CCC[C@@H](n2nc(-c3ccc(Oc4ccccc4)cc3F)c3c(N)ncnc32)C1)N1CCN(C2COC2)CC1`, the GI50 is 2.82 µM in the experiment with UO-31 renal; 2.94 µM with MOLT-4 leukemia; 4.12 µM in the experiment with TK-10 renal; 6.03 µM in the experiment with EKVX NSCLC; 5.71 µM in the experiment on COLO 205 colon; 6.57 µM in the experiment on A549 NSCLC. Moreover, the GI50 is 4.69 µM in the experiment on HT29 colon, 3.04 µM with UACC-62 melanoma, 6.11 µM with HCT-15 colon and 9.71 µM in the experiment on SK-MEL-28 melanoma. The TGI in the experiment on UO-31 renal turned out to be 10.6 µM; with MOLT-4 leukemia it was 13.7 µM; in the experiment with TK-10 renal, 15.9 µM; with EKVX NSCLC, 19.2 µM; in the experiment with COLO 205 colon, 24.3 µM; in the experiment with A549 NSCLC it was 25.1 µM. The TGI in the experiment on HT29 colon was determined as 23.6 µM; in the experiment with UACC-62 melanoma, 14.3 µM; with HCT-15 colon it was 21 µM; in the experiment on SK-MEL-28 melanoma it was 22 µM.
Take `COc1ccc(OCC(=O)O)c2c1CCCC2=O`: the TGI in the experiment with UO-31 renal, with MOLT-4 leukemia, in the experiment on TK-10 renal, with EKVX NSCLC, in the experiment on COLO 205 colon and in the experiment on A549 NSCLC was greater than 100 µM in each case. Besides, the TGI with HT29 colon, in the experiment with UACC-62 melanoma, with HCT-15 colon and in the experiment on SK-MEL-28 melanoma was greater than 100 µM each time.
For the compound `CC(C)(C)c1cc(C(P(=O)(O)O)P(=O)(O)O)cc(C(C)(C)C)c1O`, the TGI with UO-31 renal, in the experiment on MOLT-4 leukemia, in the experiment on TK-10 renal, in the experiment with EKVX NSCLC, with A549 NSCLC and with HT29 colon was greater than 100 µM in each case. Besides, the TGI with UACC-62 melanoma, with HCT-15 colon and in the experiment on SK-MEL-28 melanoma was greater than 100 µM each time.
Consider `CCOC(=O)N[C@H]1CCc2cc(OC)c(OC)c(OC)c2-c2ccc(SC)c(=O)cc21`, for which the GI50 with UO-31 renal was 0.254 µM; in the experiment with TK-10 renal it was 7.23 µM; with EKVX NSCLC, less than 0.01 µM; with SK-MEL-28 melanoma it was greater than 55.6 µM. Besides, the TGI in the experiment with UO-31 renal is greater than 100 µM; in the experiment on MOLT-4 leukemia it was greater than 100 µM; with TK-10 renal it was greater than 100 µM; with EKVX NSCLC it was greater than 100 µM; in the experiment with A549 NSCLC it was greater than 100 µM; in the experiment on UACC-62 melanoma, 70.7 µM and > 100 µM. Also, the TGI with HCT-15 colon and in the experiment with SK-MEL-28 melanoma was greater than 100 µM in each case.
With `NNC(=O)CNc1cccc(Br)c1`, the TGI with UO-31 renal, in the experiment with TK-10 renal, with EKVX NSCLC, in the experiment on COLO 205 colon, in the experiment on A549 NSCLC and with HT29 colon was greater than 100 µM in each case. Further, the TGI with UACC-62 melanoma, in the experiment with HCT-15 colon and in the experiment with SK-MEL-28 melanoma was greater than 100 µM each time.
On to `O=C(/C(=C/c1ccc(Cl)cc1)c1ccccc1)c1ccccc1`, for which the TGI was greater than 100 µM with UO-31 renal; 47 µM in the experiment on MOLT-4 leukemia; 56.8 µM with TK-10 renal; 72.4 µM with EKVX NSCLC; 33 µM in the experiment on COLO 205 colon; 38.4 µM in the experiment on HT29 colon. The TGI in the experiment on UACC-62 melanoma came to 29.4 µM; with HCT-15 colon, 30.6 µM; in the experiment with SK-MEL-28 melanoma, 30.6 µM.
`CC(C)C1=Cc2ccc3c(c2C(=O)C1=O)CCCC3(C)C`: the TGI in the experiment on UO-31 renal turned out to be 13.2 µM; in the experiment with TK-10 renal, 11.2 µM; in the experiment with EKVX NSCLC, 28.6 µM; in the experiment on COLO 205 colon, 14.5 µM; with A549 NSCLC, 34.8 µM; in the experiment on HT29 colon, 46.2 µM. In addition, the results for the TGI in the experiment with UACC-62 melanoma, in the experiment on HCT-15 colon and with SK-MEL-28 melanoma were 15.2 µM, 4.42 µM and 13.1 µM, respectively.
As for `COC(=O)C(=Cc1cc(OC)c(OC)c(OC)c1-c1cc2c(cc1C1(C)OCCS1)OCO2)C(=O)OC` (configuration not stated), the TGI with MOLT-4 leukemia, with TK-10 renal, in the experiment with EKVX NSCLC, in the experiment with COLO 205 colon, in the experiment on A549 NSCLC and in the experiment on HT29 colon was greater than 100 µM each time. Further, the TGI with UACC-62 melanoma, in the experiment with HCT-15 colon and in the experiment with SK-MEL-28 melanoma was greater than 100 µM in each case.
`O=C(CC1C(=O)Nc2ccccc2S1=O)Nc1cc(Cl)ccc1Cl` (configuration not stated): the TGI in the experiment with UO-31 renal, in the experiment on MOLT-4 leukemia, in the experiment on TK-10 renal, in the experiment on EKVX NSCLC, in the experiment on A549 NSCLC and with HT29 colon was greater than 100 µM throughout. The TGI in the experiment with UACC-62 melanoma, in the experiment on HCT-15 colon and in the experiment with SK-MEL-28 melanoma was greater than 100 µM each time.
For `CN1C(=O)c2ccccc2NC(=O)C12O[C@@H]2c1ccccc1` (some centres not stated), the TGI in the experiment with UO-31 renal, with MOLT-4 leukemia, with TK-10 renal, in the experiment on EKVX NSCLC, in the experiment with COLO 205 colon and with A549 NSCLC was greater than 100 µM in each case. In addition, the TGI in the experiment on HT29 colon, with UACC-62 melanoma and in the experiment with SK-MEL-28 melanoma was greater than 100 µM in each case.
As for `COc1ccc(C(=O)Nc2ccc(O)c(=O)cc2)cc1`, the TGI was 47 µM with UO-31 renal; greater than 100 µM in the experiment on TK-10 renal; 59 µM with EKVX NSCLC; 57 µM in the experiment with COLO 205 colon; greater than 100 µM in the experiment on A549 NSCLC; 44.1 µM in the experiment on HT29 colon. Moreover, the TGI is greater than 100 µM with UACC-62 melanoma, 89.5 µM in the experiment on HCT-15 colon and 56.4 µM in the experiment with SK-MEL-28 melanoma.
`CCOc1ccc(/C=C2\N=C(c3ccc([N+](=O)[O-])cc3)OC2=O)cc1`: the TGI with MOLT-4 leukemia, with TK-10 renal, with EKVX NSCLC, with COLO 205 colon, in the experiment with A549 NSCLC and in the experiment on HT29 colon was greater than 100 µM in each case. For the same compound, the TGI in the experiment on UACC-62 melanoma, with HCT-15 colon and in the experiment on SK-MEL-28 melanoma was greater than 100 µM each time.
As to `O=C(Nc1cccc(Cl)c1)C(=O)C(C(=O)c1ccc2ccccc2c1)C1OC(=O)c2ccccc21` (configuration not stated), the TGI with UO-31 renal was 29.9 µM; in the experiment on MOLT-4 leukemia it was 23.6 µM; with TK-10 renal, 77.4 µM; in the experiment with EKVX NSCLC, greater than 100 µM; in the experiment on COLO 205 colon it was 38.1 µM; in the experiment on A549 NSCLC, greater than 100 µM. Besides, the results for the TGI in the experiment on HT29 colon, in the experiment with UACC-62 melanoma and with SK-MEL-28 melanoma were 84.5 µM, 40.6 µM and 25.8 µM, respectively.

The values are drawn from PubChem BioAssay (NCI).
